Source: patent US10815197B2, “N-sulfonyl benzamides as voltage-gated sodium channel inhibitors” (SHANGHAI HAIYAN PHARMACEUTICAL TECHNOLOGY CO., LTD., priority 2016, dated 2020)
Where two headings read alike, the source gives them in different places.

Molecular target: T1, hNav1.7 (Homo sapiens, UniProt Q15858)
T1 construct: host or cells: CHO
Experiment: Manual patch clamp experiment hNav1.7 (CHO-hNav1.7 stable cell line)
Assay type: cell-based
Settings: for inhibitory activity against Nav1.7 (in words): comparison from Table 1; for inhibition at 0.1 µM: read-out: Inhibition of Nav1.7 100 nM(%); for inhibition at 1 µM: read-out: Inhibition of Nav1.7 1000 nM(%)
Excerpt: Assay 1: Manual Patch Clamp Experiment of Sodium Ion (hNav1.7, hNav1.5 and hNaV1.8) and Calcium Ion (hCav3.2) Channels
hNav1.7, hNav1.5 Manual Patch Clamp Experiment:
Patch voltage clamp electrophysiology allows for the direct measurement and quantification of current block of voltage-gated sodium channels (NaV's), and allows the determination of the time and voltage-dependence of block which has been interpreted as differential binding to the resting, open and inactivated states of the sodium channel to reflect the compound's inhibitory or activating effects (Hille, B., Journal of General Physiology (1977), 69: 497-515).
Representative compounds of the present invention were subject to a manual patch clamp experiment and the purpose of this study was to test the effect of compounds on this ion channel current on a stable cell line transfected with a specific ion channel using a manual patch clamp method. The used stable cell lines CHO-hNav1.7 and HEK-hNav1.5 were from Genionics and WuXi Apptec (Shanghai) respectively.
Manual patch clamp experimental program is as follows:
(1) Preparation of solutions and compounds: The whole cell patch clamp technique was used to record hNav1.7 and hNav1.5 currents. In the experiment, the composition of extracellular fluid (mM): HEPES: 5, NaCl: 40, KCl: CaCl2: 1, MgCl2: 1, CdCl2: 0.1, TEA-Cl: 20. The pH was adjusted to 7.3 with NaOH and the osmotic pressure was adjusted to 310-320 mOsm with sucrose, filtered and stored at 4° C. The composition of the intracellular fluid (mM): HEPES: 10, NaCl: 10, CsOH: 5, CsF: 140, EGTA: 1. The pH was adjusted to 7.3 with CsOH and the osmotic pressure was adjusted to 280-290 mOsm with sucrose, filtered and stored at −20° C.
The positive control and the test compound were firstly dissolved in 100% DMSO (Sigma-Aldrich, D2650), configured as stock solution at a concentration (100 nM, 1000 nM).) The above stock solution was serially diluted with DMSO prior to the experiment, the solution was further diluted with extracellular solution to obtain the test solution of the desired concentration.
(2) Manual Patch Clamp Experiment: The cell suspension was added to a 35 mm petri dish and placed on an inverted microscope stage. The cells were perfused with an extracellular fluid and the flow rate was 1-2 mL/min after cell adherence. The glass microelectrode was prepared in two steps by a microelectrode puller with an inlet water resistance of 2-5 MΩ. A/D-D/A digital-analog conversion was performed by Digidata 1440 (Molecular Devices) and pCLAMP software (version 10.2, Molecular Devices) for stimulation and signal acquisition; the signal was amplified by patch clamp amplifier (Multiclamp 700B, Molecular Devices), and filtering is 4 KHz.
Two different voltage stimulation procedures were used in the hNav1.7 and hNav1.5 manual patch clamp experiments.
One is the inactivation stimulation program, the clamp potential is set at V1/2 of the corresponding channel, i.e., about 50% of the channels are inactivated, then the voltage is applied to −120 mV for 50 ms, then depolarized to −10 mV for 20 ms leading to sodium current, and finally returned to the clamp potential. This stimulation program can also be called channel state-dependent voltage stimulation program.
The other is the non-inactivation stimulation program, the clamp potential is maintained at −120 mV, voltage stimulation is given to −10 mV for 20 ms leading to sodium current, and finally returned to the clamp potential. That is, all channels have not experienced inactivation status, but activate directly from the resting state under the conditions of the stimulation program.
The time intervals of these two voltage stimulation programs were 10 s. The inhibitory effect of the compound was calculated by the change of the current before and after dosing, the IC50 value was fitted by the Hill equation.

T1 sequence (Q15858 whole entry): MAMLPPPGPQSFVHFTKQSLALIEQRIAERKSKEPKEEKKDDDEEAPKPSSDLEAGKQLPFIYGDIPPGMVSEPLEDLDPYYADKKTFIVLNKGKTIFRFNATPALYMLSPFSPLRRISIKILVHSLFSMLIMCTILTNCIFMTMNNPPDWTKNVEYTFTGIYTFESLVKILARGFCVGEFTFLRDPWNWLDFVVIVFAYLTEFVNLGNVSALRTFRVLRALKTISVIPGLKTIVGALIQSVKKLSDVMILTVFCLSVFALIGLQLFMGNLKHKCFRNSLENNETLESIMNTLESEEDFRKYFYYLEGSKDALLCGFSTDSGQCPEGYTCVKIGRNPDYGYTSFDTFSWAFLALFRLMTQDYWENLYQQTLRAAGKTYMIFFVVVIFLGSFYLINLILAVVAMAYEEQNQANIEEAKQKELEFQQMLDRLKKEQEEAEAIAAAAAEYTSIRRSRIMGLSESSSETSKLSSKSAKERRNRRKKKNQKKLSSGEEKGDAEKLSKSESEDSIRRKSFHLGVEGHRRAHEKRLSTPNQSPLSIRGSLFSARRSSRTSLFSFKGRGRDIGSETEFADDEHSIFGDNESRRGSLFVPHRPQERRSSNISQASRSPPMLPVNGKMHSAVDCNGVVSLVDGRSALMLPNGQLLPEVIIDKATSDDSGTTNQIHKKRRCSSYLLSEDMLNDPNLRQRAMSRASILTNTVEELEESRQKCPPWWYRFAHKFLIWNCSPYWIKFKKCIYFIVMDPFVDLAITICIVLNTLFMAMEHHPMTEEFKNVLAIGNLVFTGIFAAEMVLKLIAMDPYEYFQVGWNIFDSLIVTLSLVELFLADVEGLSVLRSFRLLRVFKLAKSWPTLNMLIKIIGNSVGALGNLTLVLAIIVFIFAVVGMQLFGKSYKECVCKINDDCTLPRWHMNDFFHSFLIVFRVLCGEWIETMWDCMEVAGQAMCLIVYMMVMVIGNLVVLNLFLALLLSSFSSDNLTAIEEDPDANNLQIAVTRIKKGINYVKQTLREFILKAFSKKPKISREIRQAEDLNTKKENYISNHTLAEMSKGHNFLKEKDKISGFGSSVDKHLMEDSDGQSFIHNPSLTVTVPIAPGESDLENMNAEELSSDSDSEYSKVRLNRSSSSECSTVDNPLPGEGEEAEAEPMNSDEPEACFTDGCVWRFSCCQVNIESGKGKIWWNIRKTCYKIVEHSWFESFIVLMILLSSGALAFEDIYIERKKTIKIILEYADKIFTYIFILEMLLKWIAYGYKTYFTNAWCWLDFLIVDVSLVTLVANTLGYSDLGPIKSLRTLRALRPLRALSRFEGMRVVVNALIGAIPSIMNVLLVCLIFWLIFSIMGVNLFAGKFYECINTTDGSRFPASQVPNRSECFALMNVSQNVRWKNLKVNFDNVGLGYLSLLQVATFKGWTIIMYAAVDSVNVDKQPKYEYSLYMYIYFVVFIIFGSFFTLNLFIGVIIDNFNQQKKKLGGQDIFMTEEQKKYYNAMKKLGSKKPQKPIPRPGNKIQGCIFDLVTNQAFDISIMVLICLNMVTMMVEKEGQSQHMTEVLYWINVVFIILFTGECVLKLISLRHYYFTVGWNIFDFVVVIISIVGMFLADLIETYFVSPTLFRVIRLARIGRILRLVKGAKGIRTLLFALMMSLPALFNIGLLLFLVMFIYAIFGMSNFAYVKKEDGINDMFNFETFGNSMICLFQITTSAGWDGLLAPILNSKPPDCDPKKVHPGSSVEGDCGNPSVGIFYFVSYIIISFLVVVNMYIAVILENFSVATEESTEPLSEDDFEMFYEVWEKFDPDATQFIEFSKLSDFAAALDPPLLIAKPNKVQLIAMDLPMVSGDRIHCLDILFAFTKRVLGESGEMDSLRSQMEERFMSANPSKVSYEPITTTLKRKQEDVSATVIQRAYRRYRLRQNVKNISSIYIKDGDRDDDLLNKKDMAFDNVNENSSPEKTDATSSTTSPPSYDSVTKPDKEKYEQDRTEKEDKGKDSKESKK

Compound: O=C(NS(=O)(=O)C1CC1)c1cc(C2CC2)c(CN2CCN(Cc3cc(Cl)cc(Cl)c3)CC2)cc1F [Compound C1, reference compound]
- inhibitory activity against Nav1.7 (in words): significantly reduced
- inhibition at 0.1 µM: 52%
- inhibition at 1 µM: 64%

Compound: CS(=O)(=O)NC(=O)c1cc(C2CC2)c(CN2CCN(Cc3ccc(Cl)c(Cl)c3)CC2)cc1F [Compound C2, reference compound]
- inhibitory activity against Nav1.7 (in words): significantly reduced
- inhibition at 0.1 µM (compound at 100 nM): 49.2%
- inhibition at 1 µM (compound at 1000 nM): 64.8%

Compound: Cc1cc(C(=O)N2CCN(Cc3cc(F)c(C(=O)NS(=O)(=O)C4CC4)cc3Cl)CC2)ccc1Cl [Compound C3, reference compound]
- inhibition at 0.1 µM (compound at 100 nM): 17.6%
- inhibition at 1 µM (compound at 1000 nM): 52.3%

Compound: Cc1cc(CN2CCN(Cc3cc(F)c(C(=O)NS(=O)(=O)C4CC4)cc3Cl)CC2)ccc1Cl [Compound C4, 5-chloro-4-((4-(4-chloro-3-methylbenzyl)piperazin-1-yl)methyl)-N-(cyclopropylsulfonyl)-2-fluorobenzamide, reference compound]
- inhibitory activity against Nav1.7 (in words): significantly reduced
- inhibition at 0.1 µM (compound at 100 nM): 18.6%
- inhibition at 1 µM (compound at 1000 nM): 58.9%

Compound: O=C(NS(=O)(=O)C1CC1)c1cc(Cl)c(CN2CCN(C(=O)c3ccc(Cl)cc3)CC2)cc1F [Compound C5, reference compound]
- inhibition at 0.1 µM (compound at 100 nM): 17.2%
- inhibition at 1 µM (compound at 1000 nM): 36.8%

Compound: O=C(NS(=O)(=O)C1CC1)c1cc(Cl)c(CN2CCN(Cc3ccc(Cl)cc3)CC2)cc1F [Compound C6, reference compound]
- inhibition at 0.1 µM (compound at 100 nM): 11.2%
- inhibition at 1 µM (compound at 1000 nM): 57.2%

Compound: O=C(NS(=O)(=O)C1CC1)c1cc(Cl)c(OC[C@H]2CCCN2Cc2ccc(Cl)cc2)cc1F [Compound C7, (R)-5-chloro-4-((1-(4-chlorobenzyl)pyrrolidin-2-yl)methoxy)-N-(cyclopropylsulfonyl), reference compound]
- inhibition at 0.1 µM: 31.1%
- inhibition at 1 µM: 67.5%

Compound: O=C(NS(=O)(=O)C1CC1)c1cc(Cl)c(OC[C@H]2CCCN2Cc2ccc(C(F)(F)F)cc2)cc1F [Compound C8, (R)-5-chloro-N-(cyclopropylsulfonyl)-2-fluoro-4-((1-(4-(trifluoromethyl)benzyl)pyrrolidin-2-yl)methoxy), reference compound]
- inhibition at 0.1 µM (compound at 100 nM): 47%
- inhibition at 1 µM (compound at 1000 nM): 66.8%

Compound: O=C(NS(=O)(=O)C1CC1)c1cc(Cl)c(OC[C@H]2CCCN2C(=O)c2ccc(Cl)cc2)cc1F [Compound C9, (R)-5-chloro-4-((1-(4-chlorobenzoyl)pyrrolidin-2-yl)methoxy)-N-(cyclopropylsulfonyl), reference compound]
- inhibition at 0.1 µM (compound at 100 nM): 5.49%
- inhibition at 1 µM (compound at 1000 nM): 29.1%

Compound: O=C(NS(=O)(=O)C1CC1)c1cc(Cl)c(OC[C@H]2CCCN2C(=O)c2ccc(C(F)(F)F)cc2)cc1F [Compound C10, (R)-5-chloro-N-(cyclopropylsulfonyl)-2-fluoro-4-((1-(4-(trifluoromethyl)benzoyl)pyrrolidin-2-yl)methoxy), reference compound]
- inhibition at 0.1 µM (compound at 100 nM): 7.83%
- inhibition at 1 µM (compound at 1000 nM): 24.7%

Compound: CS(=O)(=O)NC(=O)c1cc(C2CC2)c(CN2CCN(Cc3cc(Cl)cc(Cl)c3)CC2)cc1F [Compound C11, reference compound]
- inhibitory activity against Nav1.7 (in words): significantly reduced
- inhibition at 0.1 µM (compound at 100 nM): 23.1%
- inhibition at 1 µM (compound at 1000 nM): 51.9%

Compound: O=C(NS(=O)(=O)C1CC1)c1cc(C2CC2)c(OC[C@H]2CCCN2c2ccc(C(F)(F)F)cn2)cc1F [Compound Z-142, (R)-5-cyclopropyl-N-(cyclopropylsulfonyl)-2-fluoro-4-((1-(5-(trifluoromethyl)pyridin-2-yl)pyrrolidin-2-yl)methoxy)benzamide]
- inhibition at 0.1 µM (compound at 100 nM): 92.2%
- inhibition at 1 µM (compound at 1000 nM): 97.8%

Compound: O=C(NS(=O)(=O)C1CC1)c1cc(Cl)c(OC[C@H]2CCCN2c2ccc(C(F)(F)F)cn2)cc1F [Compound Z-150, (R)-5-chloro-N-(cyclopropylsulfonyl)-2-fluoro-4-((1-(5-(trifluoromethyl)pyridin-2-yl)pyrrolidin-2-yl)methoxy)benzamide]
- inhibition at 0.1 µM (compound at 100 nM): 93.3%
- inhibition at 1 µM (compound at 1000 nM): 96.7%

Compound: O=C(NS(=O)(=O)C1CC1)c1cc(Cl)c(CN2CCN(c3ccc(C(F)(F)F)cc3)CC2)cc1F [Compound Z-174]
- inhibition at 0.1 µM (compound at 100 nM): 78%
- inhibition at 1 µM (compound at 1000 nM): 95.1%

Compound: Cc1cc(N2CCN(Cc3cc(F)c(C(=O)NS(=O)(=O)C4CC4)cc3Cl)CC2)cc(C)c1F [Compound Z-180]
- inhibition at 0.1 µM (compound at 100 nM): 70.4%
- inhibition at 1 µM (compound at 1000 nM): 97.8%

Compound: Cc1c(F)c(F)cc(N2CCN(Cc3cc(F)c(C(=O)NS(=O)(=O)C4CC4)cc3Cl)CC2)c1F [Compound Z-182]
- inhibition at 0.1 µM (compound at 100 nM): 77.2%
- inhibition at 1 µM (compound at 1000 nM): 97.6%

Compound: Cc1c(F)ccc(N2CCN(Cc3cc(F)c(C(=O)NS(=O)(=O)C4CC4)cc3Cl)CC2)c1Cl [Compound Z-184]
- inhibition at 0.1 µM (compound at 100 nM): 70.3%
- inhibition at 1 µM (compound at 1000 nM): 98.5%

Compound: Cc1cc(N2CCN(Cc3cc(F)c(C(=O)NS(=O)(=O)C4CC4)cc3Cl)CC2)cc(C)c1Cl [Compound Z-185]
- inhibition at 0.1 µM (compound at 100 nM): 85.3%
- inhibition at 1 µM (compound at 1000 nM): 94.9%

Compound: Cc1c(Cl)ccc(N2CCN(Cc3cc(F)c(C(=O)NS(=O)(=O)C4CC4)cc3Cl)CC2)c1F [Compound Z-188]
- inhibition at 0.1 µM (compound at 100 nM): 81.8%
- inhibition at 1 µM (compound at 1000 nM): 98.1%

Compound: CCc1cc(C(=O)NS(=O)(=O)C2CC2)c(F)cc1CN1CCN(c2ccc(Cl)c(Cl)c2)CC1 [Compound Z-191]
- inhibition at 0.1 µM (compound at 100 nM): 73.3%
- inhibition at 1 µM (compound at 1000 nM): 95%

Compound: CCc1cc(C(=O)NS(=O)(=O)C2CC2)c(F)cc1CN1CCN(c2cc(Cl)cc(Cl)c2)CC1 [Compound Z-192]
- inhibition at 0.1 µM (compound at 100 nM): 77.7%
- inhibition at 1 µM (compound at 1000 nM): 98.4%

Compound: CCc1cc(C(=O)NS(=O)(=O)C2CC2)c(F)cc1CN1CCN(c2ccc(Cl)c(F)c2)CC1 [Compound Z-193]
- inhibition at 0.1 µM (compound at 100 nM): 72.6%
- inhibition at 1 µM (compound at 1000 nM): 95.7%

Compound: O=C(NS(=O)(=O)C1CC1)c1cc(C2CC2)c(CN2CCN(c3cc(Cl)cc(Cl)c3)CC2)cc1F [Compound Z-197]
- inhibition at 0.1 µM: 83.6%
- inhibition at 1 µM: 100%

Compound: (cyclopropylsulfonyl)-4-((4-(3,4-dichlorophenyl) piperazin-1-yl)methyl)-2-fluorobenzamide [Compound Z-196]
- Inhibition of Nav1.7 100 nM(%) (compound at 100 nM): 85.03%
- Inhibition of Nav1.7 1000 nM(%) (compound at 1000 nM): 93.02%
